Laboratory results as given in ChEMBL document CHEMBL1126034, “Carboxylic acid replacement structure-activity relationships in suosan type sweeteners. A sweet taste antagonist. 1” (J Med Chem, 1992).

Columns and labels:
Type in all cases: functional
[1] = Compound was tested at the concentration of 1000(ppm) for percent sucrose intensity in aspartame solution contains concentration of 250(ppm)
[2] = Compound was tested at the concentration of 2000(ppm) for percent sucrose intensity in aspartame solution contains concentration of 750(ppm)
[3] = Compound was tested at the concentration of 1000(ppm) for percent sucrose intensity in aspartame solution contains concentration of 500(ppm)
[4] = Compound was tested at the concentration of 0(ppm) for percent sucrose intensity in aspartame solution contains concentration of 250(ppm)
[5] = Compound was tested at the concentration of 1000(ppm) for percent sucrose intensity in aspartame solution contains concentration of 1000(ppm)
[6] = Compound was tested at the concentration of 4.0 mg/mL for percent sucrose intensity in aqueous sucrose solution (7.5%)
[7] = Compound was tested at the concentration of 0(ppm) for percent sucrose intensity in aspartame solution contains concentration of 3000(ppm)
[8] = Compound was tested at the concentration of 0(ppm) for percent sucrose intensity in aspartame solution contains concentration of 750(ppm)
[9] = Compound was tested at the concentration of 0(ppm) for percent sucrose equivalent intensity in saccharin aqueous solution contains concentration of 330(ppm)
[10] = Compound was tested at the concentration of 0(ppm) for percent sucrose intensity in aspartame solution contains concentration of 1000(ppm)
[11] = Compound was tested at the concentration of 3.0 mg/mL for percent sucrose intensity in aqueous sucrose solution (12.5%)
[12] = Compound was tested at the concentration of 2.0 mg/mL for percent sucrose intensity in aqueous sucrose solution (12.5%)
[13] = Compound was tested at the concentration of 4000(ppm) for percent sucrose equivalent intensity in MAG aqueous solution contains concentration of 3000(ppm)
[14] = Compound was tested at the concentration of 4000(ppm) for percent sucrose equivalent intensity in rebaudioside A aqueous solution contains concentration of 638(ppm)
[15] = Compound was tested at the concentration of 0(ppm) for percent sucrose equivalent intensity in acesulfame-K aqueous solution contains concentration of 1000(ppm)
[16] = Compound was tested at the concentration of 4000(ppm) for bitterness rating in caffiene aqueous solution contains concentration of 1100(ppm)
[17] = Compound was tested at the concentration of 1000(ppm) for percent sucrose intensity in aspartame solution contains concentration of 1500(ppm)
[18] = Compound was tested at the concentration of 0.0 mg/mL for percent sucrose intensity in aqueous sucrose solution(7.5%)
[19] = Compound was tested at the concentration of 1000(ppm) for percent sucrose intensity in aspartame solution contains concentration of 2000(ppm)
[20] = Compound was tested at the concentration of 0(ppm) for bitterness rating in quinine aqueous solution contains concentration of 15(ppm)
[21] = Compound was tested at the concentration of 0.0 mg/mL for percent sucrose intensity in aqueous sucrose solution(5.6%)
[22] = Compound was tested at the concentration of 0(ppm) for percent sucrose equivalent intensity in sucralose aqueous solution contains concentration of 152(ppm)
[23] = Compound was tested at the concentration of 4000(ppm) for percent sucrose equivalent intensity in aspartame aqueous solution contains concentration of 750(ppm)
[24] = Compound was tested at the concentration of 0(ppm) for percent sucrose equivalent intensity in aspartame aqueous solution contains concentration of 750(ppm)
[25] = Compound was tested at the concentration of 2.0 mg/mL for percent sucrose intensity in aqueous sucrose solution (5.6%)
[26] = Compound was tested at the concentration of 0(ppm) for percent sucrose equivalent intensity in sucrose aqueous solution contains concentration of 10000(ppm)
[27] = Compound was tested at the concentration of 2.0 mg/mL for percent sucrose intensity in aqueous sucrose solution (7.5%)
[28] = Compound was tested at the concentration of 0(ppm) for percent sucrose equivalent intensity in thaumatin aqueous solution contains concentration of 40(ppm)
[29] = Compound was tested at the concentration of 0(ppm) for percent sucrose equivalent intensity in rebaudioside A aqueous solution contains concentration of 638(ppm)
[30] = Compound was tested at the concentration of 2000(ppm) for percent sucrose intensity in aspartame solution contains concentration of 2500(ppm)
[31] = Compound was tested at the concentration of 4.0 mg/mL for percent sucrose intensity in aqueous sucrose solution (3.5%)
[32] = Compound was tested at the concentration of 4000(ppm) for percent sucrose intensity in aspartame solution contains concentration of 2000(ppm)
[33] = Compound was tested at the concentration of 4.0 mg/mL for percent sucrose intensity in aqueous sucrose solution (10%)
[34] = Compound was tested at the concentration of 4.0 mg/mL for percent sucrose intensity in aqueous sucrose solution (12.5%)
[35] = Compound was tested at the concentration of 4000(ppm) for percent sucrose intensity in aspartame solution contains concentration of 1000(ppm)
[36] = Compound was tested at the concentration of 0(ppm) for bitterness rating in naringin aqueous solution contains concentration of 290(ppm)
[37] = Compound was tested at the concentration of 3.0 mg/mL for percent sucrose intensity in aqueous sucrose solution (10%)
[38] = Compound was tested at the concentration of 2000(ppm) for percent sucrose intensity in aspartame solution contains concentration of 250(ppm)
[39] = Compound was tested at the concentration of 2.0 mg/mL for percent sucrose intensity in aqueous sucrose solution (3.5%)
[40] = Compound was tested at the concentration of 3.0 mg/mL for percent sucrose intensity in aqueous sucrose solution (3.5%)
[41] = Compound was tested at the concentration of 4000(ppm) for percent sucrose intensity in aspartame solution contains concentration of 3000(ppm)
[42] = Compound was tested at the concentration of 4000(ppm) for percent sucrose equivalent intensity in sucrose aqueous solution contains concentration of 10000(ppm)
[43] = Compound was tested at the concentration of 4000(ppm) for bitterness rating in naringin aqueous solution contains concentration of 290(ppm)
[44] = Compound was tested at the concentration of 0.0 mg/mL for percent sucrose intensity in aqueous sucrose solution(3.5%)
[45] = Compound was tested at the concentration of 4.0 mg/mL for percent sucrose intensity in aqueous sucrose solution (5.6%)
[46] = Compound was tested at the concentration of 4000(ppm) for percent sucrose equivalent intensity in sucralose aqueous solution contains concentration of 152(ppm)
[47] = Compound was tested at the concentration of 0(ppm) for bitterness rating in caffiene aqueous solution contains concentration of 1100(ppm)
[48] = Compound was tested at the concentration of 4000(ppm) for percent sucrose intensity in aspartame solution contains concentration of 750(ppm)
[49] = Compound was tested at the concentration of 4000(ppm) for percent sucrose equivalent intensity in thaumatin aqueous solution contains concentration of 40(ppm)
[50] = Compound was tested at the concentration of 4000(ppm) for percent sucrose intensity in aspartame solution contains concentration of 500(ppm)
[51] = Compound was tested at the concentration of 0(ppm) for percent sucrose intensity in aspartame solution contains concentration of 2500(ppm)
[52] = Compound was tested at the concentration of 4000(ppm) for percent sucrose equivalent intensity in saccharin aqueous solution contains concentration of 330(ppm)
[53] = Compound was tested at the concentration of 1000(ppm) for percent sucrose intensity in aspartame solution contains concentration of 2500(ppm)
[54] = Compound was tested at the concentration of 1000(ppm) for percent sucrose intensity in aspartame solution contains concentration of 750(ppm)
[55] = Compound was tested at the concentration of 0(ppm) for percent sucrose intensity in aspartame solution contains concentration of 1500(ppm)
[56] = Compound was tested at the concentration of 1000(ppm) for percent sucrose intensity in aspartame solution contains concentration of 3000(ppm)
[57] = Compound was tested at the concentration of 4000(ppm) for bitterness rating in quinine aqueous solution contains concentration of 15(ppm)
[58] = Compound was tested at the concentration of 2000(ppm) for percent sucrose intensity in aspartame solution contains concentration of 1000(ppm)
[59] = Compound was tested at the concentration of 4000(ppm) for percent sucrose intensity in aspartame solution contains concentration of 2500(ppm)
[60] = Compound was tested at the concentration of 0.0 mg/mL for percent sucrose intensity in aqueous sucrose solution(12.5%)
[61] = Compound was tested at the concentration of 3.0 mg/mL for percent sucrose intensity in aqueous sucrose solution (7.5%)
[62] = Compound was tested at the concentration of 4000(ppm) for percent sucrose intensity in aspartame solution contains concentration of 250(ppm)
[63] = Compound was tested at the concentration of 0(ppm) for percent sucrose equivalent intensity in MAG aqueous solution contains concentration of 3000(ppm)
[64] = Compound was tested at the concentration of 2000(ppm) for percent sucrose intensity in aspartame solution contains concentration of 500(ppm)
[65] = Compound was tested at the concentration of 3.0 mg/mL for percent sucrose intensity in aqueous sucrose solution (5.6%)
[66] = Compound was tested at the concentration of 4000(ppm) for percent sucrose equivalent intensity in Na cyclamate aqueous solution contains concentration of 5000(ppm)
[67] = Compound was tested at the concentration of 0.0 mg/mL for percent sucrose intensity in aqueous sucrose solution( 10%)
[68] = Compound was tested at the concentration of 4000(ppm) for percent sucrose equivalent intensity in NHDHC aqueous solution contains concentration of 250(ppm)
[69] = Compound was tested at the concentration of 2.0 mg/mL for percent sucrose intensity in aqueous sucrose solution (10%)
[70] = Compound was tested at the concentration of 0(ppm) for percent sucrose equivalent intensity in Na cyclamate aqueous solution contains concentration of 5000(ppm)
[71] = Compound was tested at the concentration of 2000(ppm) for percent sucrose intensity in aspartame solution contains concentration of 1500(ppm)
[72] = Compound was tested at the concentration of 0(ppm) for percent sucrose intensity in aspartame solution contains concentration of 2000(ppm)
[73] = Compound was tested at the concentration of 2000(ppm) for percent sucrose intensity in aspartame solution contains concentration of 3000(ppm)
[74] = Compound was tested at the concentration of 4000(ppm) for percent sucrose intensity in aspartame solution contains concentration of 1500(ppm)
[75] = Compound was tested at the concentration of 0(ppm) for percent sucrose intensity in aspartame solution contains concentration of 500(ppm)
[76] = Compound was tested at the concentration of 4000(ppm) for percent sucrose equivalent intensity in acesulfame-K aqueous solution contains concentration of 1000(ppm)
[77] = Compound was tested at the concentration of 2000(ppm) for percent sucrose intensity in aspartame solution contains concentration of 2000(ppm)
[78] = Compound was tested at the concentration of 0(ppm) for percent sucrose equivalent intensity in NHDHC aqueous solution contains concentration of 250(ppm)

For `N#Cc1ccc(NC(=O)NCS(=O)(=O)O)cc1`, the Sweetness potency [1] was 3.3 0-15 scale, the Sweetness potency [2] was 6.24 0-15 scale and the Sweetness potency [3] was 5.98 0-15 scale. The Sweetness potency [4] was 5.34 0-15 scale, the Sweetness potency [5] was 8.83 0-15 scale and the Sweetness potency [6] was 3.3 0-15 scale. The Sweetness potency [7] was 11.4 0-15 scale, the Sweetness potency [8] was 9.78 0-15 scale and the Sweetness potency [9] was 8.15 0-15 scale. For the same molecule, the Sweetness potency [10] was 10.1 0-15 scale, the Sweetness potency [11] was 8.6 0-15 scale and the Sweetness potency [12] was 9.3 0-15 scale. The Sweetness potency [13] was 5.28 0-15 scale, the Sweetness potency [14] was 3.11 0-15 scale and the Sweetness potency [15] was 7.88 0-15 scale. The Bitter taste intensity [16] was 4.77 0-15 scale, the Sweetness potency [17] was 9.62 0-15 scale and the Sweetness potency [18] was 8.5 0-15 scale. For the same molecule, the Sweetness potency [19] was 10.5 0-15 scale, the Bitter taste intensity [20] was 11.8 0-15 scale and the Sweetness potency [21] was 6.1 0-15 scale. The Sweetness potency [22] was 8.52 0-15 scale, the Sweetness potency [23] was 3.87 0-15 scale and the Sweetness potency [24] was 9.88 0-15 scale. For the same molecule, the Sweetness potency [25] was 3.6 0-15 scale, the Sweetness potency [26] was 9.6 0-15 scale and the Sweetness potency [27] was 4.9 0-15 scale. The Sweetness potency [28] was 8.86 0-15 scale, the Sweetness potency [29] was 7.62 0-15 scale and the Sweetness potency [30] was 8.95 0-15 scale. For the same molecule, the Sweetness potency [31] was 1.2 0-15 scale, the Sweetness potency [32] was 6.91 0-15 scale and the Sweetness potency [33] was 4.5 0-15 scale. For the same molecule, the Sweetness potency [34] was 6.4 0-15 scale, the Sweetness potency [35] was 5.85 0-15 scale and the Bitter taste intensity [36] was 10.5 0-15 scale. For the same molecule, the Sweetness potency [37] was 6.5 0-15 scale, the Sweetness potency [38] was 2.11 0-15 scale and the Sweetness potency [39] was 2.3 0-15 scale. The Sweetness potency [40] was 1.6 0-15 scale, the Sweetness potency [41] was 7.82 0-15 scale and the Sweetness potency [42] was 3.23 0-15 scale. The Bitter taste intensity [43] was 7.8 0-15 scale, the Sweetness potency [44] was 4 0-15 scale and the Sweetness potency [45] was 1.3 0-15 scale. The Sweetness potency [46] was 1.43 0-15 scale, the Bitter taste intensity [47] was 8.48 0-15 scale and the Sweetness potency [48] was 4.46 0-15 scale. For the same molecule, the Sweetness potency [49] was 6.23 0-15 scale, the Sweetness potency [50] was 2.57 0-15 scale and the Sweetness potency [51] was 12.9 0-15 scale. The Sweetness potency [52] was 4.06 0-15 scale, the Sweetness potency [53] was 10.2 0-15 scale and the Sweetness potency [54] was 7.43 0-15 scale. For the same molecule, the Sweetness potency [55] was 11.4 0-15 scale, the Sweetness potency [56] was 10.7 0-15 scale and the Bitter taste intensity [57] was 5.73 0-15 scale. For the same molecule, the Sweetness potency [58] was 7.34 0-15 scale, the Sweetness potency [59] was 8.86 0-15 scale and the Sweetness potency [60] was 12.3 0-15 scale. For the same molecule, the Sweetness potency [61] was 4.2 0-15 scale, the Sweetness potency [62] was 1.37 0-15 scale and the Sweetness potency [63] was 6.97 0-15 scale. The Sweetness potency [64] was 4.48 0-15 scale, the Sweetness potency [65] was 2.2 0-15 scale and the Sweetness potency [66] was 6.05 0-15 scale. For the same molecule, the Sweetness potency [67] was 10.1 0-15 scale, the Sweetness potency [68] was 5.98 0-15 scale and the Sweetness potency [69] was 7.3 0-15 scale. The Sweetness potency [70] was 10.1 0-15 scale, the Sweetness potency [71] was 8.35 0-15 scale and the Sweetness potency [72] was 12 0-15 scale. The Sweetness potency [73] was 9.11 0-15 scale, the Sweetness potency [74] was 6.44 0-15 scale and the Sweetness potency [75] was 7.55 0-15 scale. For the same molecule, the Sweetness potency [76] was 4.59 0-15 scale, the Sweetness potency [77] was 9.35 0-15 scale and the Sweetness potency [78] was 8.85 0-15 scale.
